Activity calls are given as the source filed them.
Assays:
[1] = system: HEK293; experiment: HEK293T cell viability loss, resazurin readout – resazurin fluorescence, cytotoxicity control for NF-kB activator project, SAR follow-up (AID 493251); format: functional, cell-based; conditions: Homo sapiens
[2] = system: HEK293; experiment: SAR Analysis of small molecule inhibitors of B-cell specific antigen receptor-induced NF-kB activation in a HEK-293T cell line using a luminescence assay - Set 2. [Related pubchem assays (depositor defined):AID435022, AID435025, AID489021]; format: functional, cell-based; conditions: Homo sapiens
[3] = system: Jurkat; experiment: SAR Analysis of small molecule inhibitors of […] specific antigen receptor-induced NF-kB activation in a Jurkat cell line using a luminescence assay - Set 3. [Related pubchem assays (depositor defined):AID435022, AID435025, AID465]; format: functional, cell-based; conditions: Homo sapiens
[4] = target: T1, Phospholipase D2 (Homo sapiens, UniProt O14939); experiment: PLD2 purified enzyme concentration response. [Related pubchem assays (depositor defined):AID588854]; format: functional
[5] = target: T2, Phospholipase D1 (Homo sapiens, UniProt Q13393); experiment: PLD1 purified enzyme concentration response. [Related pubchem assays (depositor defined):AID588854]; format: functional
[6] = system: Candida albicans; experiment: resistant Candida growth with fluconazole co-treatment – CaCi-8 strain, Alamar Blue, dry powder, set 2, dose response (AID 488909); format: functional, organism-based
[7] = system: Candida albicans; experiment: fluconazole-resistant Candida strain growth inhibitors – CaCi-8 strain, dry powder, set 4, dose response (AID 488950); format: functional, organism-based
[8] = target: UDP-galactopyranose mutase (Mycobacterium tuberculosis, UniProt P9WIQ1); experiment: Inhibitors of Mycobacterium tuberculosis UDP-galactopyranose mutase (UGM) enzyme Measured in Biochemical System Using Plate Reader - 2105-02_Inhibitor_Dose_CherryPick_Activity. [Related pubchem assays (depositor defined):AID504439]
[9] = system: Vero; experiment: viability of Vero cells under compound – cytotoxicity control for flavivirus capping enzyme inhibitors (AID 588742); format: functional; conditions: Chlorocebus sabaeus
[10] = target: Albumin (Bos taurus, UniProt P02769); experiment: Counterscreen for inhibitors of T-cell receptor (TCR)-CD3 interaction: Fluorescence-based biochemical high throughput dose response assay to identify inhibitors of T-cell receptor (TCR)-CD3 interaction using a TAMRA-labeled BSA probe.; format: functional
[11] = rescue of ΔF508 CFTR function, airway epithelium – human bronchial epithelial cells, plate reader, cherry-pick, two tests, dose response (AID 743267); format: functional, cell-based
[12] = target: Genome polyprotein (dengue virus type 2, UniProt P29990); experiment: flavivirus cap methylation enzyme inhibition – biochemical, confirmation dose response, primary screen (AID 588689); format: functional
[13] = target: Glucose-6-phosphate 1-dehydrogenase (Homo sapiens, UniProt P11413); experiment: inhibition of Homo sapiens G6PD, dose series – biochemical, fluorescence, selectivity assay for P. falciparum G6PD inhibitor project, dose response (AID 504792); format: functional
[14] = target: T3, Tyrosyl-DNA phosphodiesterase 2 (Homo sapiens, UniProt O95551); experiment: potency against TDP2 phosphodiesterase activity – biochemical, epi absorbance, IC50, dose response (AID 743297)
T3 sequence (O95551 whole entry): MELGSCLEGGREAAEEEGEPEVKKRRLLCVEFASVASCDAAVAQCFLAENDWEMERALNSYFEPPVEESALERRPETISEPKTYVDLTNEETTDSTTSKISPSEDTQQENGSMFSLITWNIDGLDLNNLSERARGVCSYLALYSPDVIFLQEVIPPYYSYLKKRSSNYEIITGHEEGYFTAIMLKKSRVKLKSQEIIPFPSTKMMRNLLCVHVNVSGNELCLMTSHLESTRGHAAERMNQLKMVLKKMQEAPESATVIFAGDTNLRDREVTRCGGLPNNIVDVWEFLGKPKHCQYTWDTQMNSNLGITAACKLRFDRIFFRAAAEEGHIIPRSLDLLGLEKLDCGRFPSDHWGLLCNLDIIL

[15] = target: T2, Phospholipase D1; experiment: cellular phospholipase D1 inhibition IC50 – cell-based, dose response (AID 602151); format: functional;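 note: cellular PLD1 assay in Calu-1 cells stimulated with PMA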
[16] = target: T1, Phospholipase D2; experiment: cellular phospholipase D2 inhibition IC50 – cell-based, dose response (AID 602147); format: functional;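 note: cellular assay in HEK293 cells overexpressing GFP-tagged PLD2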

T1 sequence (O14939 whole entry): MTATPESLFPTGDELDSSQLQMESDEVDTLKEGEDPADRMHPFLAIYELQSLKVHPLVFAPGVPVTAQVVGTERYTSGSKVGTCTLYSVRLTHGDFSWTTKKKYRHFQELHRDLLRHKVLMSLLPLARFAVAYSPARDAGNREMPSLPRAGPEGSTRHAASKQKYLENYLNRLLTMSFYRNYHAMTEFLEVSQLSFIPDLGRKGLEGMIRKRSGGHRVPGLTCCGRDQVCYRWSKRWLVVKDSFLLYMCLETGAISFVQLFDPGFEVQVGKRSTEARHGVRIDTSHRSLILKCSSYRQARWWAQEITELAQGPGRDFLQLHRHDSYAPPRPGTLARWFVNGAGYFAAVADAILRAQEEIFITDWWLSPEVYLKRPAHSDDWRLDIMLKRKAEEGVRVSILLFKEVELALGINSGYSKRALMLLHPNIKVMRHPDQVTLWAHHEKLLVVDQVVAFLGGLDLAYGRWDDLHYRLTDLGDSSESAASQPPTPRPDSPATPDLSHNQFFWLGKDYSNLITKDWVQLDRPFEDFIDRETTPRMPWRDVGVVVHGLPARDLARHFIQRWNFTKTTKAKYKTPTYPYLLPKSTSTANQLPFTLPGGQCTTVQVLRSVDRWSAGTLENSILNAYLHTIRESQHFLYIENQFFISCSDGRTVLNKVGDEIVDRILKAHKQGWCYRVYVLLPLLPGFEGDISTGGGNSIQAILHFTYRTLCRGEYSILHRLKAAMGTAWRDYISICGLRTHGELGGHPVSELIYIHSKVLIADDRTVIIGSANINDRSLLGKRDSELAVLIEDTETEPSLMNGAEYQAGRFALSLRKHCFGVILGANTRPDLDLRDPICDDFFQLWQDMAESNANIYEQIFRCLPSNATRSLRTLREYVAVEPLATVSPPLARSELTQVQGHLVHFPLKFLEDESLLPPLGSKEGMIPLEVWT
T2 sequence (Q13393 whole entry): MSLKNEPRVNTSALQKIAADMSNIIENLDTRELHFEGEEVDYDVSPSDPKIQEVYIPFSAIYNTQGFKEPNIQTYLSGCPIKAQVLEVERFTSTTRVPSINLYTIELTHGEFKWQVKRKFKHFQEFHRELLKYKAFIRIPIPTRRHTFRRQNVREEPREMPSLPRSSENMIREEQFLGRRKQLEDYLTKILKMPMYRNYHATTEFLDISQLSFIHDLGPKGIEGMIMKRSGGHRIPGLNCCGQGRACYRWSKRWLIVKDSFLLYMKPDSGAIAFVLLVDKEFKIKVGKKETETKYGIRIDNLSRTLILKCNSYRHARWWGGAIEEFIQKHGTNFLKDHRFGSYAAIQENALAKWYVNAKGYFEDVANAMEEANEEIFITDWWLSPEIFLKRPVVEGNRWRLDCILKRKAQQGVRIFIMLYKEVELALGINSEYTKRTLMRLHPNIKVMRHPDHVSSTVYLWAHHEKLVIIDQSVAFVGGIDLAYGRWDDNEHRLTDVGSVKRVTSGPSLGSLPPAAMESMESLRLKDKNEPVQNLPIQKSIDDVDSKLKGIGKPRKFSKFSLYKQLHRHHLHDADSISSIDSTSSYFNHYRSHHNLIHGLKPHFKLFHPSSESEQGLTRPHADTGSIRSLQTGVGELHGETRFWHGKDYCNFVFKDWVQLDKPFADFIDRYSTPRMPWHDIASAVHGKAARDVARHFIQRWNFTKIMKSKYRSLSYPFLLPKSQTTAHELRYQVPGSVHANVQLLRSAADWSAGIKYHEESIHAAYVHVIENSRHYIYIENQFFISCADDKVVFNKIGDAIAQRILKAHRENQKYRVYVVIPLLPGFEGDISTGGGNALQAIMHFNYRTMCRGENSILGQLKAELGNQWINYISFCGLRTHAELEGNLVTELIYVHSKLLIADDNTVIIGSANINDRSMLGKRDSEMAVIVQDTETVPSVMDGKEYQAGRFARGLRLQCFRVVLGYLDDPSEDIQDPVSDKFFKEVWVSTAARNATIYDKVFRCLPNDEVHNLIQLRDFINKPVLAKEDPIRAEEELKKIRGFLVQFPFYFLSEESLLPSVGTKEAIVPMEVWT
Chain of Albumin (P02769 whole entry): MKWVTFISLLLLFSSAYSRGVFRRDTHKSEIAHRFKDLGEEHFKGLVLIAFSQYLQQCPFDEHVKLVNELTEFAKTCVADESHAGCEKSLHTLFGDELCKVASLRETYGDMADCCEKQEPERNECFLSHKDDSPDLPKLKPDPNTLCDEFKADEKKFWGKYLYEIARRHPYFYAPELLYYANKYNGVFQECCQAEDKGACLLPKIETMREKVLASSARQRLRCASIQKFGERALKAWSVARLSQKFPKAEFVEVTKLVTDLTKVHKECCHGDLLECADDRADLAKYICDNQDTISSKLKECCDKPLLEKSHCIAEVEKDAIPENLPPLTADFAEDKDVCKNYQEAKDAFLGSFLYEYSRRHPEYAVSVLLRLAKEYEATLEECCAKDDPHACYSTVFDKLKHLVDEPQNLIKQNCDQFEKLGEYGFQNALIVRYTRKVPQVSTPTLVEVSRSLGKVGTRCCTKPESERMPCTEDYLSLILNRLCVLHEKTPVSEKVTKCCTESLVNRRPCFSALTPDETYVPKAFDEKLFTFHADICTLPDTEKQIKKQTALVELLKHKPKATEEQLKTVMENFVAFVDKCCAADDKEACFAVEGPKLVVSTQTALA
Chain of Genome polyprotein (P29990 2492-3391 limits assumed): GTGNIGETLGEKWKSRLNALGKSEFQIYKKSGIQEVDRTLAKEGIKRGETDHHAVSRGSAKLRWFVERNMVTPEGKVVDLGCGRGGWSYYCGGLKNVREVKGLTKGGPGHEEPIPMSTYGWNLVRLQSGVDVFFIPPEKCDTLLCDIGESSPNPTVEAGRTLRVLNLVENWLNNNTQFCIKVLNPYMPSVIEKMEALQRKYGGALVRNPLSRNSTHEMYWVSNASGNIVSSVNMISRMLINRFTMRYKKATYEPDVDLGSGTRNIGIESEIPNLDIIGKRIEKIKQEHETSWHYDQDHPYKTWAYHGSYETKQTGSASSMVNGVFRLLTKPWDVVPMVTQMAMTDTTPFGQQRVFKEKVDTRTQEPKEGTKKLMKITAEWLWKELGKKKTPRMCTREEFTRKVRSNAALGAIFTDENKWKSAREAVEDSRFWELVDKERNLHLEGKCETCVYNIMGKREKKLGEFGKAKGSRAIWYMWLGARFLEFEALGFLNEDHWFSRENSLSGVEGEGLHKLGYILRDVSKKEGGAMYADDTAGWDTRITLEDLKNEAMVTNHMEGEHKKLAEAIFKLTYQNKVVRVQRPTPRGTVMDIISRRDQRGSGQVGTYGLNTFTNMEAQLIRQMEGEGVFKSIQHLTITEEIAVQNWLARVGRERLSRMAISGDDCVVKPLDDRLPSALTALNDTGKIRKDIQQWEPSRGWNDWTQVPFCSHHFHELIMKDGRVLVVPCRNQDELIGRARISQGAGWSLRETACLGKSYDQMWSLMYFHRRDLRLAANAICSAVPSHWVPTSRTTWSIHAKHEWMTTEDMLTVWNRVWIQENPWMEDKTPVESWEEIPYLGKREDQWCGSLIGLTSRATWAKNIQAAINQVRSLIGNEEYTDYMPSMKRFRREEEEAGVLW
Chain of UDP-galactopyranose mutase (P9WIQ1 whole entry): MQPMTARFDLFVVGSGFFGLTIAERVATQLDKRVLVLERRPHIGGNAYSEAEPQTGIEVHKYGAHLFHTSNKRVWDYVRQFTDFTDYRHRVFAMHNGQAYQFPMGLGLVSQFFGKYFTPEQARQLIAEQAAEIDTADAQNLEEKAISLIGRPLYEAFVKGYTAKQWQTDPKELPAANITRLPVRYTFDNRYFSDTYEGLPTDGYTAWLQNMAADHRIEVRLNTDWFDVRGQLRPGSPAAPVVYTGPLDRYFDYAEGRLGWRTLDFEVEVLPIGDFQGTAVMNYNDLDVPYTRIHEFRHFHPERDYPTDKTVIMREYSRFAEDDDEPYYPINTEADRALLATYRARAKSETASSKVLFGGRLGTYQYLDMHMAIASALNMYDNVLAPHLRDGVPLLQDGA
Chain of Glucose-6-phosphate 1-dehydrogenase (P11413 whole entry): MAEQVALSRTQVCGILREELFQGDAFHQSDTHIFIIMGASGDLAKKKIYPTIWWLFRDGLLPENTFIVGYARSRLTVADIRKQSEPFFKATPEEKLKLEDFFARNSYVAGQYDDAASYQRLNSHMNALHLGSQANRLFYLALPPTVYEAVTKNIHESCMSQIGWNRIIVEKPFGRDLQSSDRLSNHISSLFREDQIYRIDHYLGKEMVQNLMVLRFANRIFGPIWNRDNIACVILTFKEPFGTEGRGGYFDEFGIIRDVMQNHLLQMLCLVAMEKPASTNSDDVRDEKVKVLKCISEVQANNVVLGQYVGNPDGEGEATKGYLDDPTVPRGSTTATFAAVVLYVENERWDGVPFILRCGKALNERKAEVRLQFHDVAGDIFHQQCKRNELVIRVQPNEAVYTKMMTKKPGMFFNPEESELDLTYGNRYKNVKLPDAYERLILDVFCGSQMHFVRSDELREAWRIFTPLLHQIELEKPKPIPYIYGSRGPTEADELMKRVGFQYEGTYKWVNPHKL

For `CCOc1ccc(-c2nc(CSCC(=O)NC3CCCC3)c(C)o2)cc1`, the IC50 [1] was 64.2 µM (inactive), the IC50 [2] was 26.4 µM (inactive) and the IC50 [3] was 37.6 µM (inactive).

For `O=C(NCCN1CCC2(CC1)C(=O)NCN2c1ccc(Br)cc1)c1cc2cc(F)ccc2[nH]1`, the IC50 [4] was 0.028 µM (active) and the IC50 [5] was 5 µM (active).

For `CCCC(=O)N1CCN(c2ccnc3cc(Cl)ccc23)CC1`, the AC50 [6] was 5.59 µM (active) and the AC50 [7] was 16.9 µM (active).

In the case of `O=C1NC(c2cccs2)Nc2sc3c(c21)CCCC3` (stereo unspecified), the AC50 [8] is reported as 129 µM (active).

In the case of `O=C1C(=NCCc2cc(Br)c(O)c(Br)c2)C=C(O)c2cccnc21`, the CC50 [9] is reported as 2.03 µM (active), the IC50 [10] is reported as > 94.2 µM (inactive) and the AC50 [11] is reported as 3.33 µM (active). For the same molecule, the IC50 [12] was 12.2 µM (active), the IC50 [13] was 25.2 µM (inactive) and the IC50 [14] was 5.04 µM (active).

With `C[C@@H](CN1CCC2(CC1)C(=O)NCN2c1ccc(F)c(F)c1)NC(=O)c1cc2cc(F)ccc2[nH]1` the IC50 [15] was 0.005 µM (active) and the IC50 [16] was 0.032 µM (active).

From ChEMBL document CHEMBL1201862, “PubChem BioAssay data set” (2004)
